Reference: patent publication US20220315895A1, “METHODS OF MAKING OLIGOPOTENT AND UNIPOTENT PRECURSORS” (Transfusion Health, LLC, priority 2019, published 2022)

Legend:
[1] = tested on: expanded cord blood CD34+ cells, megakaryocyte lineage (CD41, CD42b); test: Megakaryocyte Differentiation Culture after Expansion Culture (Example 38); assay type: cell-based, human
Description: At days 21 and 63, CD34+ enriched cells were placed into Differentiation Cultures, described below.
Differentiation cultures were initiated using Erythroid, Myeloid (granulocyte and monocyte), and Megakaryocyte HemaTox kits from STEMCELL technologies following the manufacturer's instructions. In brief, lineage media was prepared by adding cytokine cocktails for erythrocyte (SCF, IL-3, and EPO), myeloid (i.e. mixed granulocyte/monocyte, SCF, TPO, G-CSF, and GM-CSF) or megakaryocyte (SCF, IL-6, IL-9 and TPO) lineage differentiation to their respective kits' media, then adding approximately 30-100 CD34+ cells for erythroid or myeloid cultures, or 300-1000 CD34+ cells for megakaryoid cultures. Exact cell numbers plated were quantified for later analysis. All incubations for Differentiation Culture took place at 3% oxygen (controlled by nitrogen) and 5% CO2.
Following seven days of erythroid or myeloid cultures, or ten days for megakaryoid cultures, differentiated cell output was quantified using flow cytometry. Erythroid output was quantified using anti-CD71 and anti-CD235a antibodies, and megakaryocyte lineage output was quantified using anti-CD41 and anti-CD42b antibodies. Granulocyte and monocyte lineage outputs were assessed in tandem, using CD14 and CD15 antibodies, with granulocyte lineage cells being CD15+/CD14−, and monocyte lineage cells being CD14+/CD15−.
A number of quantities were calculated to assess the effect of expansion of CD34+ cells in the +Formula I Condition on the output of lineage differentiated cells. “Per-Assayed-CD34+ Cell Output” describes the output of differentiated cells per CD34+ cell placed into Differentiation Culture, and is calculated by dividing the total number of lineage-positive cells by the input CD34+ cell number quantified at Differentiation Culture initiation at day 1, 21, or 63. […]

CD56+ NK lineage cells = test: NK-cell Maturation Culture (Example 41); assay type: cell-based, human; settings: for % Mature cells: CD3−/CD19−/CD56+ of Live / % Mature cells: CD16+ of Live/CD3−/CD19−/CD56+ / % Mature cells: CD94+ of Live/CD3−/CD19−/CD56+ / % Mature cells: CD161+ of Live/CD3−/CD19−: NK, +Formula I-expanded CD34+ cells
Description: Following 14 days in Lymphoid Progenitor Differentiation Cultures, cells were placed into T- and NK-cell Maturation Cultures.
For NK-cell Maturation Cultures, cells from L Diff Cultures were plated at 25,000 cells per well in TC-treated 48-well plates with 250 μl of NK-cell Differentiation Medium, comprising StemSpan SFEM II medium with StemSpan NK Cell Differentiation Supplement and UM171 (STEMCELL Technologies), prepared according to the manufacturer's instructions, except substituting UM171 at 100 nM for the 1 μM UM729 called for in the protocol.
Following 4 days of culture, NK- and T-cell Maturation Cultures' medias were replenished by adding an equal volume of the same culture media added on day 14. At days 21 and 25 of NK- or T-cell Maturation Cultures, half-media changes were performed by removing half of the total volume of media without disturbing cells and adding media freshly prepared as on day 14.
Following 7 and 14 days in NK- and T-cell Maturation Culture (21 and 28 days from initiation of Lymphoid Differentiation Culture, respectively), cells were stained with antibodies to CD56, CD3, CD161, CD94, and CD16 and analyzed via flow cytometry to quantify T and NK lineage phenotypes.
“Adult Peripheral Blood Unit Equivalents per CBU” was calculated by multiplying each condition's Scaled Output (per CD34+ cell) by 10^6, a conservative estimate of the number of CD34+ cells in an umbilical cord blood unit, then dividing that quantity by the number of CD56+, CD3+ or CD8+ cells typically found in a unit of donated adult peripheral blood: 5×10^7 (CD56+), 10^9 (CD3+) or 3×10^8, according to Invitrogen (https://assets.thermofisher.com/TFS-Assets/LSG/brochures/I-076357%20cell%20count%20table%20topp_WEB.pdf).

## CC(C)(C)C(=O)Nc1ccc2c(c1)C(O)c1ccccc1-2 (stereo not drawn) [Compound 1.010]
[1]; +Formula I expansion to day 21, then 10 days differentiation
  fold increase of per-expanded-day-1-CD34+ cell output, total megakaryocyte lineage, over uncultured cells: 18 fold
[1]; +Formula I expansion to day 63, then 10 days differentiation
  fold increase of per-expanded-day-1-CD34+ cell output, total megakaryocyte lineage, over uncultured cells: 3,400 fold
[1]; Formula I-expanded, either 21 or 63 days of prior Expansion Cell Culture, Megakaryocyte Differentiation Culture
  CD42b+ cells of CD41+ cells: approximately 50%
CD56+ NK lineage cells; CD34+ cells first expanded for 14 days in +Formula I conditions
  CD56+ NK cells, of total live cells: 93%
CD56+ NK lineage cells; Lymphoid Diff day 21
  % Mature cells: CD3−/CD19−/CD56+ of Live: 91%
  % Mature cells: CD16+ of Live/CD3−/CD19−/CD56+: 31%
  % Mature cells: CD94+ of Live/CD3−/CD19−/CD56+: 7.8%
  % Mature cells: CD161+ of Live/CD3−/CD19−: 81%
CD56+ NK lineage cells; Lymphoid Diff day 28
  % Mature cells: CD3−/CD19−/CD56+ of Live: 95%
  % Mature cells: CD16+ of Live/CD3−/CD19−/CD56+: 16%
  % Mature cells: CD94+ of Live/CD3−/CD19−/CD56+: 3.5%
  % Mature cells: CD161+ of Live/CD3−/CD19−: 89%
